Data published in paper PMC6407917, “Identification of GSK3186899/DDD853651 as a Preclinical Development Candidate for the Treatment of Visceral Leishmaniasis” (Journal of Medicinal Chemistry, 2018).
pIC50: −log10 of the molar value.

Assays:
Assay in all cases: biochemical
Parameters in all cases: species or system HEK293/K-562/placenta mixed human extract; Kinobeads chemoproteomic competition binding, quantified by TMT LC-MS/MS, dose response up to 20 uM
[1] = target: LYN (Homo sapiens, UniProt P07948)
[2] = target: PRKCA (Homo sapiens, UniProt P17252)
[3] = target: MAP4K2 (Homo sapiens, UniProt Q12851)
[4] = target: RIPK2 (Homo sapiens, UniProt O43353)
[5] = target: BTK (Homo sapiens, UniProt Q06187)
[6] = target: YWHAG (Homo sapiens, UniProt P61981)
[7] = target: EPHA7 (Homo sapiens, UniProt Q15375)
[8] = target: PTK2 (Homo sapiens, UniProt Q05397)
[9] = target: MAP2K5 (Homo sapiens, UniProt Q13163)
[10] = target: MYLK (Homo sapiens, UniProt Q15746)
[11] = target: FLT4 (Homo sapiens, UniProt P35916)
FLT4, sequence (P35916 whole entry): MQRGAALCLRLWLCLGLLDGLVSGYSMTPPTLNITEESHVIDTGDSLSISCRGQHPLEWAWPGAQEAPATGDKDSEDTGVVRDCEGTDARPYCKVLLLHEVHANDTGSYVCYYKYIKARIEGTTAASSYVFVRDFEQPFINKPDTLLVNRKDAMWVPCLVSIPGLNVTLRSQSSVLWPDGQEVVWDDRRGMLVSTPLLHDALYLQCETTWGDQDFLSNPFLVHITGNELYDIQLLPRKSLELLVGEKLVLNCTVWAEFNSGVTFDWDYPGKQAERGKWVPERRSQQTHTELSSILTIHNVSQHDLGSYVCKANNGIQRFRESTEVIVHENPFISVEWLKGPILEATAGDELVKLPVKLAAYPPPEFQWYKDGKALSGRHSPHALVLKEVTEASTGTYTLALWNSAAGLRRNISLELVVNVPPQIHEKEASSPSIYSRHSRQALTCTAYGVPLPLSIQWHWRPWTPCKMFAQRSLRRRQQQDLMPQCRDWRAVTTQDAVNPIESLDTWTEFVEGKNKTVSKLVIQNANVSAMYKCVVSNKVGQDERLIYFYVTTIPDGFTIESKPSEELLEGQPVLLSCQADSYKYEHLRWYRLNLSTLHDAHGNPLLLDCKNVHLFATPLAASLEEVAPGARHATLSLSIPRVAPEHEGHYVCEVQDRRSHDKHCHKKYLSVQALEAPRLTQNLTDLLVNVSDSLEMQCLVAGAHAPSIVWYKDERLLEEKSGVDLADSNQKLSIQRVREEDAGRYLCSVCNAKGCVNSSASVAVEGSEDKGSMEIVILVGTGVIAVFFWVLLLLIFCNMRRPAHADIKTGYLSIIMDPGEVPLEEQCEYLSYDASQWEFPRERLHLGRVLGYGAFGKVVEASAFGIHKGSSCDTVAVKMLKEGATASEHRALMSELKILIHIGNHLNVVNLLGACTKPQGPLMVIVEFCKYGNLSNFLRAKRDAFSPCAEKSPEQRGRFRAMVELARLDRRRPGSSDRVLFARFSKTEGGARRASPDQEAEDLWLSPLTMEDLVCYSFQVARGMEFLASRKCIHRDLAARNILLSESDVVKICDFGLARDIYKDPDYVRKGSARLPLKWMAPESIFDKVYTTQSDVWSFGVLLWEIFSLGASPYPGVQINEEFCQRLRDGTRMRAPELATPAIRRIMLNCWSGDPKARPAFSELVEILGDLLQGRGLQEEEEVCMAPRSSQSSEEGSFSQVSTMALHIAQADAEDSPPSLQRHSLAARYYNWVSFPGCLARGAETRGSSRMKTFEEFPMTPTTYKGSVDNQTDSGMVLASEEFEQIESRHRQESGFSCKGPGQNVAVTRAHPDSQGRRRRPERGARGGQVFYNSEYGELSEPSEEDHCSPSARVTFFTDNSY

[12] = target: MAPK14 (Homo sapiens, UniProt Q16539)
MAPK14, sequence (Q16539 whole entry): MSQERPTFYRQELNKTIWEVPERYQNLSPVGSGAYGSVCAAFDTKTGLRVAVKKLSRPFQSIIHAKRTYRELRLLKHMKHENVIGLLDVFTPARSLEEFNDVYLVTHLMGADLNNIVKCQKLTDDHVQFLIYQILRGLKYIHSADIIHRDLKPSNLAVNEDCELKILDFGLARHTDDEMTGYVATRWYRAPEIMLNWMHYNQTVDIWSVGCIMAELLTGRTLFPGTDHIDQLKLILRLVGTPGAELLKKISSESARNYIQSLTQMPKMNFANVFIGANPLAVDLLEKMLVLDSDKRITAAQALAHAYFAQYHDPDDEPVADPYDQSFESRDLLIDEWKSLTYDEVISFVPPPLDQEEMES

[13] = target: MAPK1 (Homo sapiens, UniProt P28482)
[14] = target: PIK3C3 (Homo sapiens, UniProt Q8NEB9)
PIK3C3, sequence (Q8NEB9 whole entry): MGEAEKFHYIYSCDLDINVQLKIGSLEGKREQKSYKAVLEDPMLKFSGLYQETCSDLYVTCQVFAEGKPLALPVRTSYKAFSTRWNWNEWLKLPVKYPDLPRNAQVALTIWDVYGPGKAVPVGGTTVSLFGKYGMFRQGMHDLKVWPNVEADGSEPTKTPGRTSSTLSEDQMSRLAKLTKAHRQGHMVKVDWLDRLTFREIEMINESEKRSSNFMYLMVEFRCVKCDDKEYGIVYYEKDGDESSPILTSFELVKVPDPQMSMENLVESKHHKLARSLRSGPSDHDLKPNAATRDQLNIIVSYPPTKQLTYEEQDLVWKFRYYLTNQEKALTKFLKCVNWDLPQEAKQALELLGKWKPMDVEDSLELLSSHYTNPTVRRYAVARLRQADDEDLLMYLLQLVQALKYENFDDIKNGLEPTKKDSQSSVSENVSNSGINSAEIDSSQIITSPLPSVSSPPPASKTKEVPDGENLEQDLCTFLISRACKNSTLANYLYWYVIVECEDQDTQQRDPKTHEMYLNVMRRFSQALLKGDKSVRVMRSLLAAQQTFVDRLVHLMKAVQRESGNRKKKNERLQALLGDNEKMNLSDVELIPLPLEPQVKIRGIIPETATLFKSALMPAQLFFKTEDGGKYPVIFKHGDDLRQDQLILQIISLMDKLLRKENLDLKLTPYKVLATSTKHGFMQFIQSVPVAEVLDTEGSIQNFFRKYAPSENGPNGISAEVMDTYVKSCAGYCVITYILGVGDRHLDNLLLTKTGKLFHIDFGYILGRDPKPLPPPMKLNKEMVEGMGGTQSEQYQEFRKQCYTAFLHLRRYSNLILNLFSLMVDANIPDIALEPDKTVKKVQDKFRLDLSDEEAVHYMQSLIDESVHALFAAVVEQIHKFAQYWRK

[15] = target: FN3KRP (Homo sapiens, UniProt Q9HA64)
FN3KRP, sequence (Q9HA64 whole entry): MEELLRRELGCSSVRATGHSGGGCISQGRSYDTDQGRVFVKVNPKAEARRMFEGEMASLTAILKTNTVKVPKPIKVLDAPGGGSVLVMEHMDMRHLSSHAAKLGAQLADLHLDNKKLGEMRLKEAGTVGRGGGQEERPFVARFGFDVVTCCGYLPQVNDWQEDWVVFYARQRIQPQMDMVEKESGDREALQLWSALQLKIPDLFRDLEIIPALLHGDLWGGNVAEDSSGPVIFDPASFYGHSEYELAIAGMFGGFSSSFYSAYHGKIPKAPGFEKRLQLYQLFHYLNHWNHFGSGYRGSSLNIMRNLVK

[16] = target: EPHB4 (Homo sapiens, UniProt P54760)
EPHB4, sequence (P54760 whole entry): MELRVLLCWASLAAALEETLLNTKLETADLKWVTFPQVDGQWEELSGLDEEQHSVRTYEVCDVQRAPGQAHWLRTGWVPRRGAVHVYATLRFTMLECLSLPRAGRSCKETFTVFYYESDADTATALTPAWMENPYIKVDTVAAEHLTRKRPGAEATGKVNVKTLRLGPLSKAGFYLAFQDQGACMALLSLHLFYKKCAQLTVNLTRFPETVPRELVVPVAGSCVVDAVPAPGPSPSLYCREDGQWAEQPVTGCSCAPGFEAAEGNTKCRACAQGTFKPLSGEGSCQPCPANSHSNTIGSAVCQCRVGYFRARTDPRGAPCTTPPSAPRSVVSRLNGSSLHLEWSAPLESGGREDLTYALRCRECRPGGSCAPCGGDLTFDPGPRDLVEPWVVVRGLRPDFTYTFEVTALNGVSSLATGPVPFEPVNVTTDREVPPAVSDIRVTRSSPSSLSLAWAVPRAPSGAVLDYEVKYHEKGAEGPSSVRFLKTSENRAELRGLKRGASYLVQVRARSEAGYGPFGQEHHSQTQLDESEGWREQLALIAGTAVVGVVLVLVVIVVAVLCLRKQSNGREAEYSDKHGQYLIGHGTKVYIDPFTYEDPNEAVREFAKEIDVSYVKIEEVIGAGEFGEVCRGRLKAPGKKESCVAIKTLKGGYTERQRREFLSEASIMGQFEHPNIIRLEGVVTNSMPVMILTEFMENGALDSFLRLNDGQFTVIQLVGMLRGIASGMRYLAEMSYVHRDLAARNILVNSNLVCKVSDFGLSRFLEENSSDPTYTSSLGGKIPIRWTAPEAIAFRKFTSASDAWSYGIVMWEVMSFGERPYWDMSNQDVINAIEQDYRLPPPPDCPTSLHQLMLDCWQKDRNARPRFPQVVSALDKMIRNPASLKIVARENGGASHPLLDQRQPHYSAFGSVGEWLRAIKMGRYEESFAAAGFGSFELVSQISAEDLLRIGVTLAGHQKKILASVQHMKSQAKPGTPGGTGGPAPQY

[17] = target: ABL2 (Homo sapiens, UniProt P42684)
ABL2, sequence (P42684 whole entry): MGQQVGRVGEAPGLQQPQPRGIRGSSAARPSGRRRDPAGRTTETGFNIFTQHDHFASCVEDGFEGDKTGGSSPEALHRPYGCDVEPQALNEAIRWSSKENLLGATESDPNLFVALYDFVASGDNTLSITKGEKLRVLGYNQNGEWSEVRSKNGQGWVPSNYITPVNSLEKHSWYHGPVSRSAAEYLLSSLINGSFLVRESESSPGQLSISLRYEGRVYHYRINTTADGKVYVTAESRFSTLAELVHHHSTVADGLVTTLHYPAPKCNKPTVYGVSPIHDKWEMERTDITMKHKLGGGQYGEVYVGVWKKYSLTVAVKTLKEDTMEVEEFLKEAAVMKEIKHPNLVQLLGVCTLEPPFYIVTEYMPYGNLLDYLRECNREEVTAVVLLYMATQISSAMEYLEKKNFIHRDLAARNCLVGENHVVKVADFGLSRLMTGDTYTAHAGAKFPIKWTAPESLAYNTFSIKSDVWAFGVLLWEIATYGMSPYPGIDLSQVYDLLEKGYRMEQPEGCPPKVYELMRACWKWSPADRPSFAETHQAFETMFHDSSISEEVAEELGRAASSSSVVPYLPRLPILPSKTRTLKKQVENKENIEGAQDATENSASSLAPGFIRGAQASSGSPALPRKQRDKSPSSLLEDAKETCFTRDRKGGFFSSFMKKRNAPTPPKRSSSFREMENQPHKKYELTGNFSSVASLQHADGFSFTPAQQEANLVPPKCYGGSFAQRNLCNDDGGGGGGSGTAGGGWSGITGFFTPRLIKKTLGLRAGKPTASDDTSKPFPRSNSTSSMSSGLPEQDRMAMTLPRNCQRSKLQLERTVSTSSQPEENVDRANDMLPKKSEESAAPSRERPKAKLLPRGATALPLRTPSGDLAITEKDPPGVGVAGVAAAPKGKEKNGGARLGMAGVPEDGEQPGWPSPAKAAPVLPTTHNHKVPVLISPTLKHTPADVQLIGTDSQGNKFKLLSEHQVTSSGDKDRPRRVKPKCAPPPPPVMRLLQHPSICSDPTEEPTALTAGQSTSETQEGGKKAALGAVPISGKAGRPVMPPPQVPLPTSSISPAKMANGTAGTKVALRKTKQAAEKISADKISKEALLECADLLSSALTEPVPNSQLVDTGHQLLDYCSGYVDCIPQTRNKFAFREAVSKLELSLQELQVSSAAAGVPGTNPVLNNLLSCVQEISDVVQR

[18] = target: MINK1 (Homo sapiens, UniProt Q8N4C8)
[19] = target: MAP4K3 (Homo sapiens, UniProt Q8IVH8)
[20] = target: STK4 (Homo sapiens, UniProt Q13043)
[21] = target: NEK9 (Homo sapiens, UniProt Q8TD19)

Measured: pIC50

COc1nc(N[C@H]2CC[C@H](NS(=O)(=O)CC(C)C)CC2)nc2[nH]nc(N3CCOC[C@H]3C)c12 [compound 39, N-(trans-4-((4-Methoxy-3-((R)-3-methylmorpholino)-1H-pyrazolo[3,4-d]pyrimidin-6-yl)amino)cyclohexyl)-2-methylpropane-1-sulfonamide]
≤ 4.70: all assays above
